For assay [1], the target named is T1, DPP-4 human recombinant enzyme (Homo sapiens, UniProt P27487).
T1 construct: purchased Sigma-Aldrich (Oakville, ON, Canada)
Description: DPP-4 inhibition assay. It is filed as biochemical. The following applies: mean ± SD, triplicates. As to the method: The DPP-4 inhibition assay was performed according to an established method. […] The reaction mixture was incubated for 30 min in the dark at 37 °C. Then, the fluorescent product was recorded at excitation/emission wavelengths of 350/450 nm using the microplate reader (Infinite® 200 PRO, TECAN, Männedorf, Switzerland). […] The percentage of the DPP-4 inhibition and IC50 was calculated as described in Section 3.3.1.

A further assay concerns BSA/MGO fluorescent AGEs. Description: Inhibition of AGE formation, intermediate stage of glycation (BSA/MGO). The assay is classed as biochemical, bovine. The following applies: BSA/MGO model. As to the method:
(§1) The BSA-MGO assay was based on those described before, with some modifications. This experiment is based on the formation of fluorescent AGEs from the middle stage of protein glycation. MGO (1.5 mM) and BSA (3 mg/mL) were dissolved separately in 0.05 M phosphate buffer (pH 7.4) containing NaCl (100 mM) and NaN3 (0.02% w/v). Then, 300 μL of MGO was incubated with samples at different concentrations (dissolved in a buffer containing 60% ethanol) for an hour at 37 °C, in the dark, with constant stirring. After BSA (3 mg/mL) was added to the reaction mixture and incubation time was extended to 48 h at 37 °C in darkness. The rest of the procedure was the same as that for the BSA-glucose/fructose model that is described above. The percentage of the AGE inhibition and IC50 was calculated as described in Section 3.3.1.

Assay [2] concerns amyloid fibrils of glycated BSA (BSA/MGO). As to the kind of experiment: Inhibition of amyloid fibril formation, ThT assay (BSA/MGO). The assay is classed as biochemical, bovine. To be noted: highest obtained, PESE 200, PIC 200, AMG 100 µg/mL. As to the method: as §1
The fibrillar state of modified BSA was determined with ThT as previously described. ThT is a probe that binds directly to amyloid fibrils to give a strong fluorescent signal and thus can be used to quantify β-amyloid due to protein glycation. Basically, 30 μL of glycated protein (approx. 1 mg/mL), obtained as described previously, was mixed with 100 μL ThT reagent (10 μM ThT in 100 mM phosphate buffer, pH 7.0), and fluorescence was collected at excitation/emission wavelengths of 450/490 nm in a microplate reader (Infinite® 200 PRO, TECAN, Männedorf, Switzerland). […]

A short description of assay [3]: MGO capture using derivatization with OPD (HPLC). To be noted: PESE 2 mg/mL, PIC 2 mM, AMG 2 mM; MGO 2 mM; 37 °C, 1 h. As to the method:
MGO scavenging was tested using a described procedure, with slight modifications. The quantification of MGO was based on derivatization with OPD, leading to the formation of the product 2-methylquinoxyline (2-MQ). MGO and OPD were dissolved in phosphate buffer (50 mM, pH 7.4) to a concentration of 2 mM and 4 mM, respectively. […] The reaction system was composed of 125 μL of the MGO solution, 125 μL of phosphate buffer (negative control), or PESE incubated at 37 °C for 1 h. After 250 μL of the OPD solution was added, the tubes were kept for 30 min for the derivatization reaction between MGO and OPD to complete. Then, the chromatographic analysis was performed. All solutions were previously filtered (microfilter pore diameter 0.45 μm). […] The linear gradient for elution was: starting at 5% of solvent B, 0–3 min, 5 to 50% B; 3–16 min, isocratic in 50% B; 16–17 min, 50–90% B; 17–19 min, isocratic in 90% B and 19–19.5 min, 90–5% B. The derivatization product, 2-methylquinoxyline (2-MQ), was detected at 315 nm, with a retention time of 10 min. The percentage of trapping efficiency of MGO was calculated using the following equation: % trapping MGO = [100 − (peak area after adding sample/peak area without adding sample) × 100].

The next assay relates to BEAS-2B cells. Description: Intracellular ROS level (DCFH-DA) after NNKOAc. The assay is classed as cell-based, human. As to the method:
(§2) The generation of intracellular ROS in BEAS-2B, AML-12, and MCF-10A cells after treatments was measured as described previously. Briefly, DCFH-DA dye was readily taken up by cells and is subsequently hydrolyzed to DCFH, which can be oxidized to a measurable fluorescent product dichlorofluorescein (DCF). […] Cells with DMSO media (0.5%) served as the vehicle control. After treatments, DCFH-DA was added to the cell culture plates at a final concentration of 5 μM followed by 40 min incubation at dark. The fluorescence […] was then measured at an excitation and emission wavelength of 485 nm and 535 nm, using a microplate reader (Infinite® 200 PRO, TECAN, Männedorf, Switzerland).
(§3) BEAS-2B, MCF10-A, and AML-12, cells were purchased from the American Tissue Type Culture Collection (ATCC; CRL-9609, CRL-10317, and CRL-2254) and cultured with a specific medium. BEAS-2B cells were cultured with LHC-9 media at 37 °C in an incubator with 5% CO2. Culture flasks (polystyrene T75) were pre-coated with a mixture of 0.01 mg/mL fibronectin, 0.03 mg/mL bovine collagen type I, and 0.01 mg/mL bovine serum albumin were dissolved in LHC-9 medium overnight. […]

Another assay relates to AML-12 cells. As to the kind of experiment: Intracellular ROS level (DCFH-DA) after NNKOAc. The assay is classed as cell-based, mouse. The following applies: 50 µg/mL, 3 h pretreatment; NNKOAc 100 µM. On the procedure: as §2, §3
Another assay has as its system alpha-glucosidase. To be noted: formation of p-nitrophenol; cited from earlier work.
The test system of a further assay is db/db mice. More on the design: method as in PMID 25832644. The following applies: PIC supplementation; cited from earlier work.
The subject of another assay is diabetic mice. More on the design: method as in doi:10.32604/biocell.2020.08955. The following applies: cited from earlier work.

SMILES strings stand for the structures. Marks after values point to notes of the source that are not given here.

T1 sequence (P27487 whole entry): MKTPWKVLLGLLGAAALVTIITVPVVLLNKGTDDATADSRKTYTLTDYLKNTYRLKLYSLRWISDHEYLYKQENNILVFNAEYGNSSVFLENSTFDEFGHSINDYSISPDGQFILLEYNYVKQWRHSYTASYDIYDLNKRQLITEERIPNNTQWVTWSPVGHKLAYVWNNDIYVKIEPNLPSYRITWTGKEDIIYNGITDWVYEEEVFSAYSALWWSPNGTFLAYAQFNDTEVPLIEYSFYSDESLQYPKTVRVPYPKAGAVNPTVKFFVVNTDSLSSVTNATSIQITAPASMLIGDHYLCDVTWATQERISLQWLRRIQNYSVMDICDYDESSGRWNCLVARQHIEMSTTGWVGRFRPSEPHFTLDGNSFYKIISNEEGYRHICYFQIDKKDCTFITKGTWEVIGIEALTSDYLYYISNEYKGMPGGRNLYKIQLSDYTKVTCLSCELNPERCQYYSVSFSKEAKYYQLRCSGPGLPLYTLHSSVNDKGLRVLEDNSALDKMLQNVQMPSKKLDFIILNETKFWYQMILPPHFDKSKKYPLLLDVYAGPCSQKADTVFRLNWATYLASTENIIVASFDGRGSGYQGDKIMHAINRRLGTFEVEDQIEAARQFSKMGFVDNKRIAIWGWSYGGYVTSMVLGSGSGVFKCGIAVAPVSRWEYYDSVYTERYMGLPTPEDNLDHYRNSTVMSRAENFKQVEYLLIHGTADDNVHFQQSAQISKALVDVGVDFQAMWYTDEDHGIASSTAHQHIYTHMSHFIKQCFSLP
Description for HOCl scavenging activity: Briefly, a freshly prepared HOCl solution, by adjusting the pH of a 1% solution of NaOCl to 6.2 with dropwise addition of diluted H2SO4, was diluted to 30 µM, using 100 mM phosphate buffer pH 7.4. […] QCT was used as means of comparison. Fluorescence assays were performed in a microplate reader (Infinite® 200 PRO, TECAN, Männedorf, Switzerland), at 37 °C, at wavelengths of 505 ± 10 nm and 530 ± 10 nm, for excitation and emission, respectively. The results were expressed as IC50 (μg/mL) of extract solution.

Regarding `Oc1cc(O)cc(/C=C/c2ccc(O)c(O)c2)c1` [PIC, 3,3′,4′,5-trans-tetrahydroxystilbene], in assay [1], the IC50 was 4.66 mM. Further, in the assay with BSA/MGO fluorescent AGEs, the “Antiglycation IC50, MGO” value is recorded as 67.4 ± 4.6 ^b μg/mL. Moreover, the “Inhibition of Amyloid Fibrils (%), MGO” value in assay [2] is listed as 100 ± 3.8 ^a %. Besides, in assay [3], the MGO trapping was found to be 65.1%. The “HOCl IC50” value in the assay “HOCl scavenging activity” turned out to be 1.2 ± 0.5 µg/mL. Also, in the assay with BEAS-2B cells (50 µg/mL, 3 h pretreatment, NNKOAc 100 µM), the “Protection from oxidative stress (ROS) caused by the carcinogen, BEAS-2B” value is “able to protect”. Besides, the “Protection of cultured human cells from oxidative stress caused by NNKOAc” value in the assay with BEAS-2B cells (NNKOAc at 100 µM, abstract, cell line and concentration not specified) was “capable of protecting”. In addition, the “Protection from oxidative stress (ROS) caused by the carcinogen, AML-12” value in the assay with AML-12 cells was “able to protect”. For the same molecule, the “Mechanism of alpha-glucosidase inhibition” value in the assay with alpha-glucosidase is “non-competitive”. In addition, the “Fasting blood glucose, db/db mice” value in the assay on db/db mice is “reduced fasting blood glucose”. Also, in the assay with diabetic mice, the “Blood glucose, diabetic mice” value was “lowered the blood glucose” and the “Glucose tolerance, diabetic mice” value is recorded as “improved glucose tolerance”.

For orientation: IC50 means the concentration needed to halve the response being measured.

Source of the values: PMC9267955, “Antidiabetic, Antiglycation, and Antioxidant Activities of Ethanolic Seed Extract of Passiflora edulis and Piceatannol In Vitro” (Molecules, 2022).
